Experimental data from patent US20170211073A1, “ANTISENSE ANTINEOPLASTIC AGENT” (priority 2014, published 2017).

Assays:
[1] = system: human large intestine cancer cells HCT116; experiment: Antitumor effect of YB-1 ASO AmNA into blood, HCT116 subcutaneous tumor; format: in vivo, nude mice
Protocol: Antitumor effect of administration into blood of YB-1 ASO of AmNA type, of which high safety was confirmed in Example 9 compared with ASO constituted with the conventional BNA, was examined. The human large intestine cancer cells HCT116 were subcutaneously transplanted to the thighs of nude mice. After subcutaneous tumors having a diameter of 6 to 7 mm (average tumor volume, 78 vs. 72 mm^3) were formed, 200 μg/200 μL of YB-1 ASO AmNA was administered (once every two weeks, total 2 times) into the blood from the caudal veins. The diameters of the tumors were measured over time, and tumor volumes calculated in accordance with a calculation formula, (Major axis)×(Minor axis)/2, were compared with those obtained with the control antisense group. The subcutaneous tumors were collected after one week from the second administration (day 28), and weights thereof were compared. In the YB-1 ASO AmNA group, both the tumor diameter and tumor weight were suppressed to about ⅕ of those observed with the control antisense group (FIG. 10, *P<0.05).

[2] = system: gemcitabine-resistant pancreatic cancer SUIT2-GR cells; experiment: Repetitive administration into blood, SUIT2-GR subcutaneous tumor growth; format: in vivo, nude mice; details: 10 mg/kg BW caudal vein once a week over three weeks, days 14 and 21
Protocol: The tumor diameters were measured over time.

[3] = system: pancreatic cancer cell strain SUIT2; experiment: Apoptosis induction in SUIT2 by FACS and Western blotting (PARPp85, caspase-3); format: cell-based; details: 20 nM, in vitro
Protocol: In the same manner as that of Example 3, 20 nM of #10AmNA YB-1 antisense was introduced into the cells of the pancreatic cancer cell strain SUIT2 in vitro.

CD31 = experiment: Microvessel density by CD31 immunostaining in SUIT2-GR subcutaneous tumor; format: in vivo, nude mice; details: administration into the blood
Text: The neovascularity marker CD31 in the SUIT2-GR subcutaneous tumor of the treatment experiment (A) was immunostained. As a result, it was observed that the microvessel density was decreased by the administration of #10 AmNA YB-1 antisense into the blood, and thus inhibition of neovascularization was induced (FIG. 14C).

YB-1 [4] = experiment: YB-1 expression in H226 by real-time RT-PCR; format: cell-based; details: Lipofectamine RNAiMax
Text: The #10 AmNA YB-1 antisense was introduced into cells of the malignant mesothelioma cell strain H226 using the reagent Lipofectamine RNAiMax, and expression of YB-1 was examined by real-time RT-PCR.

[5] = system: malignant mesothelioma cell strain H226; experiment: Proliferation of H226 cells; format: cell-based
[6] = system: malignant mesothelioma cell strain H226; experiment: H226 subcutaneous tumor model; format: in vivo; details: 10 mg/kg BW caudal vein once a week for two weeks, vs control group
Protocol: Subcutaneous tumor models of the malignant mesothelioma cell strain H226 were prepared. […] A photograph of the subcutaneous tumor after the treatment is shown in the left panel.

YB-1 [7] = experiment: YB-1 expression in SKOV3 by real-time RT-PCR; format: cell-based; details: Lipofectamine RNAiMax
Text: The #10 AmNA YB-1 antisense was introduced into cells of the ovarian cancer cell strain SKOV3 using the reagent Lipofectamine RNAiMax, and expression of YB-1 was examined by real-time RT-PCR.

[8] = system: ovarian cancer cell strain SKOV3; experiment: Proliferation of SKOV3 cells; format: cell-based
[9] = system: ovarian cancer cell strain SKOV3; experiment: SKOV3-luciferase peritoneum inoculation model; format: in vivo; details: 10 mg/kg BW intraperitoneally once a week for two weeks, vs control group
Protocol: Peritoneum inoculation models of ovarian cancer cell strain SKOV3 stably expressing luciferase were prepared. Then, after 1 week from the transplantation of the cancer cells, 10 mg/kg BW of #10 AmNA YB-1 antisense was intraperitoneally administered once a week for two weeks, and the tumor volume was evaluated over time in terms of the luciferase activity.

YB-1 [10] = experiment: YB-1 expression in AS44 by real-time RT-PCR; format: cell-based; details: Lipofectamine RNAiMax
Text: The #10 AmNA YB-1 antisense was introduced into cells of the gastric cancer cell strain AS44 using the reagent Lipofectamine RNAiMax, and expression of YB-1 was examined by real-time RT-PCR.

[11] = system: gastric cancer cell strain AS44; experiment: Proliferation of AS44 cells; format: cell-based
[12] = system: pancreatic cancer cell strain MIA PaCa-2; experiment: Anticancer agent sensitivity enhancement, MIA PaCa-2; format: cell-based; details: antisense 5 nM, 5-FU, gemcitabine
Protocol: (§1) The #10 AmNA YB-1 antisense (5 nM) was introduced into cells of the pancreatic cancer cell strain MIA PaCa-2 (FIG. 19A) and ovarian cancer cell strain SKOV-3 (FIG. 19B) using the reagent Lipofectamine RNAiMax, and cell-killing effects of the anticancer agent observed in the presence and absence of the antisense were compared. […] The anticancer agent concentrations that provided equivalent cell-killing effects are shown in blue color (5-FU) or red color (gemcitabine).

[13] = system: ovarian cancer cell strain SKOV-3; experiment: Anticancer agent sensitivity enhancement, SKOV-3; format: cell-based; details: antisense 5 nM, 5-FU, gemcitabine
Protocol: as §1

[14] = system: pancreatic cancer cell strain SUIT-2; experiment: Radiation sensitivity enhancement, SUIT-2; format: cell-based; details: antisense 10 nM
Protocol: The #10 AmNA YB-1 antisense (10 nM) was introduced into cells of the pancreatic cancer cell strain SUIT-2 using the reagent Lipofectamine RNAiMax, and cell-killing effects of X-ray irradiation observed in the presence and absence of the antisense were compared.

YB-1 [15] = experiment: YB-1 knockdown efficiency of NA, BNA and AmNA antisenses in HUVEC, HPAEC, MiaPaCa2 (real-time RT-PCR); format: cell-based; details: 24 hours, vs naturally occurring type and LNA type antisense
Protocol: YB-1 naturally occurring type nucleic acid antisense (NA), LNA/BNA type nucleic acid antisense (BNA), and AmNA type nucleic acid antisense (AmNA) were introduced into cells of the vascular endothelial cell strains (HUVEC, HPAEC) and the pancreatic cancer cell strain (MiaPaCa2-) at various concentrations. RNAs were extracted 24 hours afterward, and the YB-1 expression was evaluated by real-time RT-PCR. […] The graphs show mean±SD (n=3, *P<0.01 vs. BNA, P<0.0001 vs. NA)

YB-1 [16] = experiment: YB-1 knockdown siRNA vs AmNA-AON, protein level (Western blotting); format: cell-based; details: AsPC-1, MIA PaCa-2, Suit-2, 20 nM, 48 hours
Protocol: YB-1-siRNA or YB-1 #10AmNA was introduced (final concentration, 20 nM) into cells of the pancreatic cancer cell strains (AsPC-1, MIA PaCa-2, and Suit-2). After 48 hours, RNAs and proteins were extracted, and the YB-1 expression was evaluated by real-time RT-PCR and Western blotting at the mRNA level (A) and protein level (B), respectively. Both the knockdown efficiencies obtained with siRNA and #10 AmNA-AON were high at the mRNA level, and any clear difference was not observed between them. […] The graphs show mean±SD (n=3, *P<0.05).

## TCTcctgcaccCTGg (TCTCCTGCACCCTGG; chemistry not fully specified) [#10AmNA]
[1]; 200 μg/200 μL caudal vein, once every two weeks, total 2 times
  tumor diameter as fraction of control antisense group: about ⅕
[1]; day 28
  tumor weight as fraction of control antisense group: about ⅕
[2]
  subcutaneous tumor-suppressing effect: significant subcutaneous tumor-suppressing effect
[3]
  induction of apoptosis (FACS; PARPp85, caspase-3): Induction of apoptosis was observed
CD31
  microvessel density (CD31): decreased
YB-1 [4]
  suppression of YB-1 expression: Concentration-dependent suppression
[5]
  suppression of proliferation: suppression of proliferation
[6]
  increase of the tumor in terms of tumor weight: significantly suppressed
YB-1 [7]
  suppression of YB-1 expression: Concentration-dependent suppression
[8]
  suppression of proliferation: suppression of proliferation
[9]
  tumor volume (luciferase activity): significantly suppressed
YB-1 [10]
  suppression of YB-1 expression: Concentration-dependent suppression
[11]
  suppression of proliferation: suppression of proliferation
[12]
  cell-killing effects of the anticancer agent in presence of the antisense: Enhancement of the cell-killing effect
[13]
  cell-killing effects of the anticancer agent in presence of the antisense: Enhancement of the cell-killing effect
[14]
  cell-killing effects of X-ray irradiation in presence of the antisense: Enhancement of the cell-killing effect
YB-1 [15]
  YB-1 knockdown efficiency: significantly higher
YB-1 [16]
  knockdown efficiency at the protein level: clearly higher
